# Assay results as given in patent US20050272035A1, “Functional screening method” (priority 2002, published 2005).
# Assays:
# [1] = test system: Cyt-C (EGFP-Cytochrome C); test: Granularity and Membrane Spot image analysis of EGFP-Cytochrome C indicator in HeLa cells; type: cell-based; settings: staurosporine treated HeLa cells, FIG. 10 inset
# From the text: A further group of indicator proteins were transfected into HeLa cells and cells imaged before and after exposure to staurosporine as described in Example 2. […] These algorithms return results which quantitate fluorescence in degrees of granularity (i.e. low value indicates uniform distribution, high value indicates punctate distribution) and in terms of membrane localisation.
# [2] = test system: ATF1 (activating transcription factor 1); test: Nuclear trafficking (N/C ratio) of ATF1-EGFP indicator in transiently transfected HeLa cells; type: cell-based; settings: 1 μM, 5 minutes, scatterplot FIG. 9
# Method: Expression vectors encoding cDNA-EGFP indicators were transiently transfected into HeLa cells growing in wells of 96 well microtitre plates by chemically mediated transfection (Fugene, Roche) and cells incubated under standard growth conditions for 24 hours to permit synthesis of indicator fusion proteins. Cells were subsequently stained with DRAQ 5, a cell permeable nuclear DNA binding dye (Biostatus), to fluorescently mark cell nuclei, and all wells imaged with dual laser excitation (EGFP 488 nm, DRAQ 5 633 nm) using an IN Cell Analyzer (Amersham Biosciences). Data for green (EGFP) and red (DRAQ 5) fluorescence were collected for all cells (FIG. 6) and used to determine thresholds for data separation of transfected cells (EGFP fluorescence above threshold) from non-transfected cells (EGFP fluorescence below threshold).
# Indicator proteins derived from a range of cDNAs as described for Example 1 were transfected into HeLa cells and allowed to express for 24 hours. Following expression, cells were transferred into serum-free media for 2 hours to allow effects of stimuli from serum factors such as cortisol to decay. […] This algorithm allows the spatial distribution of cDNA-EGFP fusion proteins to be quantitated in expressing cells: a low N/C ratio indicating a cytoplasmic location for the indicator protein, a high N/C ration indicating a nuclear location. […]
structure (smiles),measurement,setting,value
CN[C@@H]1C[C@H]2O[C@@](C)([C@@H]1OC)n1c3ccccc3c3c4c(c5c6ccccc6n2c5c31)C(=O)NC4 [staurosporine],ratio of outputs of Granularity and Membrane Spot algorithms for Cyt-C indicator,[1],highest differential return from the two algorithms
same,response of ATF1 indicator N/C ratio to modulator,[2],specific and differential responses
